Values of other authors in patent US8481599B2, “Compositions and methods for increasing compliance with therapies using aldehyde dehydrogenase inhibitors and treating alcoholism” (Tonix Pharmaceuticals Inc., priority 2001, dated 2013).
Read-outs that look alike come from different tables or passages of the source.

Key:
ALDH-I = target: T1, ALDH-I (Homo sapiens, UniProt P05091)
T1 sequence (P05091 18-517): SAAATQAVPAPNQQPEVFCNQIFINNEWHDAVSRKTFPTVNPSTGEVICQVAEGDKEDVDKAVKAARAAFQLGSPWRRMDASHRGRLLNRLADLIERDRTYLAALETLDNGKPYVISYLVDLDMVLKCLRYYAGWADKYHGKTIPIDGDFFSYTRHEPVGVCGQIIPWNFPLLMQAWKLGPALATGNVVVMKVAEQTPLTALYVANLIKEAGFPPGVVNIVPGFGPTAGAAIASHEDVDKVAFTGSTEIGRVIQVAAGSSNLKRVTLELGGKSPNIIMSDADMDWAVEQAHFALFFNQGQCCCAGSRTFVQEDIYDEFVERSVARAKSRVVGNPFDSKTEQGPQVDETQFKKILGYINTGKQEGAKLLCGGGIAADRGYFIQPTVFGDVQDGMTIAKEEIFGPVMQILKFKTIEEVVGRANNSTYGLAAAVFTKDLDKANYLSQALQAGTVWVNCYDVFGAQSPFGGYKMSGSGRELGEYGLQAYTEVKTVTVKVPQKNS

[1] = rat studies
ALDH = settings: rat studies
ALDH-II = target: T2, ALDH-II (Homo sapiens, UniProt P00352); settings: in vitro
T2 sequence (P00352 1-501): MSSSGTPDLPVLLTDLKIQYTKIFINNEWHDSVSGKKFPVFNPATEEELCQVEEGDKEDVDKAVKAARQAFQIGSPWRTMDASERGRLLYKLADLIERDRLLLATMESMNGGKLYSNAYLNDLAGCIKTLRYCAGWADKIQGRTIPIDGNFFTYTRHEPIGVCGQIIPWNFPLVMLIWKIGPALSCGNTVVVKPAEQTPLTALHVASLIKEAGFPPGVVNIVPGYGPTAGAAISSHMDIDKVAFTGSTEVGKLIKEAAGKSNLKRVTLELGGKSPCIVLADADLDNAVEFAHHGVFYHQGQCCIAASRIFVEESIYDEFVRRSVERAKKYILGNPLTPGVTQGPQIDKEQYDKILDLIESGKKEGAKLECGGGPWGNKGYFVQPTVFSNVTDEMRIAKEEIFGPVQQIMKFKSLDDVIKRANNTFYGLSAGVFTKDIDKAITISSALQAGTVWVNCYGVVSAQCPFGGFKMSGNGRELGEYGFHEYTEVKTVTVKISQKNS

O=c1c(-c2ccc(O)cc2)coc2cc(O[C@@H]3O[C@H](CO)[C@@H](O)[C@H](O)[C@H]3O)ccc12 [Daidzin]
inhibition of ALDH-I (ALDH-I): selective potent reversible inhibitor

N5-(hydroxycyclopropyl)-L-glutamine [coprine]
suppression of ethanol consumption [1]: effectively suppressed ethanol consumption
potency as ALDH inhibitor relative to disulfiram (ALDH): more potent inhibitor of ALDH as compared to disulfiram

N#CN [cyanamide]
inhibition of ALDH-II (ALDH-II): unable to inhibit
inhibition of ALDH-I (ALDH-I; in vitro): unable to inhibit
